Assay results reported in publication PMC6045597, “Probiotics in human gut microbiota can degrade host glycosaminoglycans” (Scientific Reports, 2018).

Columns and labels:
Assay in all cases: coupled NADH oxidation at […] nm
Type in all cases: biochemical
KduI = molecular target: T1, KduI (Lacticaseibacillus rhamnosus, UniProt C2JUP1); conditions: isomerase coupled with reductase DhuD or KduD; DHU prepared from unsaturated chondroitin disaccharide (6-sulfate) with UGL
T1 construct: recombinant, expressed in E. coli, purified to homogeneity; encoded in GAG genetic cluster
T1 sequence (C2JUP1 1-281): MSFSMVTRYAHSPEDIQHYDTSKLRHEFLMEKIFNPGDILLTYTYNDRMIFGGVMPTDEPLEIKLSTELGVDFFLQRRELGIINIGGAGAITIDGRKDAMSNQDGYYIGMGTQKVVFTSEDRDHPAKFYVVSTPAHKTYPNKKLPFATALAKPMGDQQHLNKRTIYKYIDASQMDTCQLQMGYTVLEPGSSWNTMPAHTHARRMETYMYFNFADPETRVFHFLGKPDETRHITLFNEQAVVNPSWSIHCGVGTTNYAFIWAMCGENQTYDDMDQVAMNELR

DhuI = molecular target: T2, DhuI (Streptococcus agalactiae, UniProt Q8DXE6); conditions: reference isomerase, coupled with reductase DhuD or KduD; DHU prepared with UGL
T2 construct: gene SAG1905; purified protein
T2 sequence (Q8DXE6 1-212): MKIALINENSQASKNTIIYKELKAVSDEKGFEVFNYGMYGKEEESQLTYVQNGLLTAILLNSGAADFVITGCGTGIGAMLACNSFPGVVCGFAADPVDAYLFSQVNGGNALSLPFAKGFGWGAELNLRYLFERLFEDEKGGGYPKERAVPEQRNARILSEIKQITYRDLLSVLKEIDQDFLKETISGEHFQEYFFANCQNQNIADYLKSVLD

KduD = molecular target: T3, KduD (Lacticaseibacillus rhamnosus, UniProt A0A0E3CKR8); conditions: DK-II formed in situ from DHU by KduI or DhuI
T3 construct: recombinant, expressed in E. coli, purified to homogeneity; encoded in GAG genetic cluster
T3 sequence (A0A0E3CKR8 23-274): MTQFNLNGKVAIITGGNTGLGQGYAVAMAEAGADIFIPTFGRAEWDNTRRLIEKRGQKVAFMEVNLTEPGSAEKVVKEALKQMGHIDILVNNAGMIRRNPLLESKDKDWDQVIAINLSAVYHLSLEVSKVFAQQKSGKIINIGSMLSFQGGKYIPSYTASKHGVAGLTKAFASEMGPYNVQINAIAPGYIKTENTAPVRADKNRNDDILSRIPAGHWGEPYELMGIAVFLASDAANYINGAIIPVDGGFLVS

DhuD = molecular target: T4, DhuD (Streptococcus agalactiae, UniProt Q8E370); conditions: reference reductase, DK-II formed in situ from DHU by DhuI or KduI
T4 construct: gene gbs1891; purified protein
T4 sequence (Q8E370 1-270): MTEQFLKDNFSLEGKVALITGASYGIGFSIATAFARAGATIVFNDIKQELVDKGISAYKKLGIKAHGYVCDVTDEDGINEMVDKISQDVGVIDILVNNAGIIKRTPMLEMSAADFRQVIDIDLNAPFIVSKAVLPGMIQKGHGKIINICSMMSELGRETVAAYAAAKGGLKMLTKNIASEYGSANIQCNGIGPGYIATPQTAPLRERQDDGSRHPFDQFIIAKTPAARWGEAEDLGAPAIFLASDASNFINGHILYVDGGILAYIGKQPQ

Row | Compound | coupled NADH oxidation at 340 nm (KduI) | coupled NADH oxidation at 340 nm (DhuI) | coupled NADH oxidation at 340 nm (KduD) | coupled NADH oxidation at 340 nm (DhuD)
1 | O=C[C@H](O)[C@@H](O)CC(=O)C(=O)O [DHU, 4-deoxy-l-threo-5-hexosulose-uronic acid] | KduI catalyses the isomerase reaction from DHU to DK-II | successive reaction of isomerase (DhuI or KduI) and reductase (DhuD or KduD) | – | –
2 | O=C(O)C(=O)C[C@H](O)C(=O)CO [DK-II, 3-deoxy-d-glycero-2,5-hexodiulosonic acid] | – | – | DK-II, which is further reduced to KDG by NADH-dependent reductase KduD | successive reaction of isomerase (DhuI or KduI) and reductase (DhuD or KduD)
3 | NC(=O)C1=CN([C@@H]2O[C@H](COP(=O)(O)OP(=O)(O)OC[C@H]3O[C@@H](n4cnc5c(N)ncnc54)[C@H](O)[C@@H]3O)[C@@H](O)[C@H]2O)C=CC1 [NADH] | – | – | further reduced to KDG by NADH-dependent reductase KduD | –
